These molecules were tested against T1, recombinant rat AR LBD (Rattus norvegicus, UniProt P15207) (assay: competition fluorescence polarization binding assay). Conditions: relative binding affinity; ratio of Kd of test compound to Kd of DHT multiplied by 100.
T1 construct: recombinant rat AR LBD
T1 sequence (P15207 651-882 limits assumed): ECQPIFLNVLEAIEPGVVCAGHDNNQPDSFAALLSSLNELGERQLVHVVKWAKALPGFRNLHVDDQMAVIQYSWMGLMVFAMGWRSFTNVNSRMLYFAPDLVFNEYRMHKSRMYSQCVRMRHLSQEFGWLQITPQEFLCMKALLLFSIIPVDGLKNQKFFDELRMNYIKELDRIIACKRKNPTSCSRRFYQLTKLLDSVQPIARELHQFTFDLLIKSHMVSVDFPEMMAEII
Description: Binding affinity of the synthesized ligands was evaluated by competition fluorescence polarization assay using recombinant rat AR LBD, and the results summarized in Table 1. All ligands with a bulky right-hand extension, such as compounds 18-20 in FIG. 5, performed poorly in this assay, with even the best compounds binding AR only weakly. […] In Table 1, RBA stands for relative binding affinity, and is defined as the ratio of Kd of the test compound to Kd of DHT multiplied by 100.
With CC12Cc3cn[nH]c3C=C1CCCC2CCCO (stereo not drawn) [Compound 12, 3-(4α-Methyl-4,4α,5,6,7,8-hexahydro-1H-benzo[f]indazol-5-yl)propan-1-ol] the “RBA (DHT = 100)” value was 1. CC12Cc3cnn(-c4ccc(F)cc4)c3C=C1CCCC2CCCO (stereo not drawn) [Compound 16, 3-(1-[4-Fluorophenyl]-4α-Methyl-4,4α,5,6,7,8-hexahydro-1H-benzo[f]indazol-5-yl)propan-1-ol] was tested, and the “RBA (DHT = 100)” value was 19. With CC12Cc3cn[nH]c3C=C1CCCC2CCc1ccc(CO)cc1 (centres unmarked) [Compound 18, {4-[2-(4a-Methyl-4,4a,5,6,7,8-hexahydro-1H-benzo[f]indazol-5-yl)-ethyl]-phenyl}-methanol] the “RBA (DHT = 100)” value was less than 0.1. With CC12Cc3cnoc3C=C1CCCC2CCc1ccc(CO)cc1 (centres unmarked) [Compound 19, {4-[2-(4a-Methyl-4,4a,5,6,7,8-hexahydro-naphtho[2,3-d]isoxazol-5-yl)-ethyl]-phenyl}-methanol] the “RBA (DHT = 100)” value was less than 0.1. For CC12Cc3cnn(-c4ccc(F)cc4)c3C=C1CCCC2CCc1ccc(CO)cc1 (centres unmarked) [Compound 20], the “RBA (DHT = 100)” value was 0.12.

From patent US7645885B2, “Non-steroidal antiandrogens” (The Regents of the University of California, priority 2005, dated 2010)
